Measured values reported in ChEMBL document CHEMBL5131471, “Design, synthesis and mechanism studies of novel dual PARP1/BRD4 inhibitors against pancreatic cancer” (Eur J Med Chem, 2022).
Calls of active or inactive are those of the source.

Legend:
Mus musculus [1] = assay: Upregulation of CDK6 expression in nude mouse xenografted with human SW1990 cells at 45 mg/kg, ip measured after 4 days by Q-PCR analysis; format: functional, organism-based; settings: time 4.0 day
SW1990 [2] = assay: Effect on c-Myc gene expression in human SW1990 cells at 6 uM by Q-PCR analysis; format: functional, cell-based
SW1990 [3] = assay: Induction of Rad51 accumulation in nucleus of human SW1990 cells at 6 uM measured after 4 days by Western blot analysis; format: functional, cell-based; settings: time 4.0 day
SW1990 [4] = assay: Effect on CDK1 gene expression in human SW1990 cells at 6 uM by Q-PCR analysis; format: functional, cell-based
SW1990 [5] = assay: Effect on CCND1 gene expression in human SW1990 cells at 6 uM by Q-PCR analysis; format: functional, cell-based
Mus musculus [6] = assay: Upregulation of CDC25B expression in nude mouse xenografted with human SW1990 cells at 45 mg/kg, ip measured after 4 days by Western blot analysis; format: functional, organism-based; settings: time 4.0 day
SW1990 [7] = assay: Effect on TOPBP1 gene expression in human SW1990 cells at 6 uM by Q-PCR analysis; format: functional, cell-based
Mus musculus [8] = assay: Upregulation of CDC25B expression in nude mouse xenografted with human SW1990 cells at 45 mg/kg, ip measured after 4 days by Q-PCR analysis; format: functional, organism-based; settings: time 4.0 day
SW1990 [9] = assay: Induction of apoptosis in human SW1990 cells assessed as early apoptotic cells at 6 uM measured after 4 days by Annexin V-FITC and propidium iodide staining based flow cytometry (reference value: 1.62%); format: functional; settings: time 4 day
SW1990 [10] = assay: Effect on CDK6 gene expression in human SW1990 cells at 6 uM by Q-PCR analysis; format: functional, cell-based
[11] = Toxicity in nude mouse xenografted with human SW1990 cells assessed as lung damage at 15 mg/kg, ip administered for 28 days in presence of 45 mg/kg Olaparib by H and E staining based fluorescence microscopic analysis; format: organism-based; settings: in vivo, 672 h, time 28 day
SW1990 [12] = assay: Effect on FOXM1 gene expression in human SW1990 cells at 4 uM by Q-PCR analysis; format: functional, cell-based
SW1990 [13] = assay: Effect on CDK1 to 2 gene expression in human SW1990 cells at 1 uM in presence of Olaparib by Q-PCR analysis; format: functional, cell-based
SW1990 [14] = assay: Induction of apoptosis in human SW1990 cells assessed as early apoptotic cells at 1 uM measured after 4 days in presence of 3 uM Olaparib by Annexin V-FITC and propidium iodide staining based flow cytometry (reference value: 1.62%); format: functional; settings: time 4 day
SW1990 [15] = assay: Induction of apoptosis in human SW1990 cells assessed as necrotic cells at 4 uM measured after 4 days by Annexin V-FITC/propidium iodide staining based flow cytometry (reference value: 2.45%); format: functional; settings: time 4 day
SW1990 [16] = assay: Effect on FOXO1 gene expression in human SW1990 cells at 1 uM in presence of Olaparib by Q-PCR analysis; format: functional, cell-based
SW1990 [17] = assay: Effect on CCNB1 gene expression in human SW1990 cells at 1 uM in presence of Olaparib by Q-PCR analysis; format: functional, cell-based
SW1990 [18] = assay: Effect on c-Myc gene expression in human SW1990 cells at 1 uM in presence of Olaparib by Q-PCR analysis; format: functional, cell-based
SW1990 [19] = assay: Induction of apoptosis in human SW1990 cells assessed as late apoptotic cells at 1 uM measured after 4 days in presence of 3 uM Olaparib by Annexin V-FITC and propidium iodide staining based flow cytometry (reference value: 7.23%); format: functional; settings: time 4 day
SW1990 [20] = assay: Effect on CDK1 gene expression in human SW1990 cells at 4 uM by Q-PCR analysis; format: functional, cell-based
SW1990 [21] = assay: Induction of DNA damage in human SW1990 cells assessed as increase in tail DNA at 1 uM incubated for 4 days in presence of 3 uM Olaparib by comet assay; format: functional, cell-based; settings: time 4.0 day
Mus musculus [22] = assay: Inhibition of PARP1 expression in nude mouse xenografted with human […] cells at 30 mg/kg, ip administered for 28 days by DAPI staining based laser confocal microscopic analysis; format: functional, organism-based; settings: time 28.0 day
SW1990 [23] = assay: Induction of DNA damage in human SW1990 cells assessed as increase in gammaH2AX expression at 1 to 2 uM incubated for 4 days by DAPI staining based laser confocal microscopic analysis; format: functional, cell-based; settings: dose 1-2 µM, time 4.0 day
SW1990 [24] = assay: Induction of DNA damage in human SW1990 cells assessed as increase in tail DNA at 1 to 2 uM incubated for 4 days by comet assay; format: functional, cell-based; settings: dose 1-2 µM, time 4.0 day
Mus musculus [25] = assay: Inhibition of homologous recombinant repair in nude mouse xenografted with human SW1990 cells assessed as reversal of olaparib-induced FOXM1 expression at 30 mg/kg, ip measured after 4 days by Western blot analysis; format: functional, organism-based; settings: time 4.0 day
Mus musculus [26] = assay: Inhibition of homologous recombinant repair in nude mouse xenografted with human SW1990 cells assessed as reversal of olaparib-induced MDC1 expression at 30 mg/kg, ip measured after 4 days by Western blot analysis; format: functional, organism-based; settings: time 4.0 day
Mus musculus [27] = assay: Inhibition of CDC25B expression in nude mouse xenografted with human SW1990 cells at 30 mg/kg, ip measured after 4 days by Q-PCR analysis; format: functional, organism-based; settings: time 4.0 day
SW1990 [28] = assay: Effect on BRCA2 gene expression in human SW1990 cells at 1 to 2 uM by Q-PCR analysis; format: functional, cell-based; settings: dose 1-2 µM

O=C(c1cc(Cc2n[nH]c(=O)c3ccccc23)ccc1F)N1CCN(C(=O)C2CC2)CC1 [OLAPARIB]
1.84%: Activity (SW1990 [9])
active: Activity (Mus musculus [1]) | Activity (SW1990 [2]) | Activity (SW1990 [3]) | Activity (SW1990 [4]) | Activity (SW1990 [5]) | Activity (Mus musculus [6]) | Activity (SW1990 [7]) | Activity (Mus musculus [8]) | Activity (SW1990 [10])

Cc1sc2c(c1C)C(c1ccc(Cl)cc1)=N[C@@H](CC(=O)OC(C)(C)C)c1nnc(C)n1-2
active: Activity (SW1990 [12]) | Activity (SW1990 [13]) | Activity (SW1990 [16]) | Activity (SW1990 [17]) | Activity (SW1990 [18]) | Activity (SW1990 [20]) | Activity (SW1990 [21])
Non-Toxic: Activity [11]
34.5%: Activity (SW1990 [19])
3.07%: Activity (SW1990 [14])
3.35%: Activity (SW1990 [15])

Cc1noc(C)c1-c1ccc2c(c1)C(c1ccccc1)N(Cc1nc3c(C(N)=O)cccc3[nH]1)C(=O)N2C (stereo not drawn)
active: inhibition (Mus musculus [22]) | Activity (SW1990 [23]) | Activity (SW1990 [24]) | inhibition (Mus musculus [25]) | inhibition (Mus musculus [26]) | inhibition (Mus musculus [27]) | Activity (SW1990 [28])
